This is an account of results in ChEMBL document CHEMBL1143926, “Synthesis of novel analogues of (+)-varitriol via olefin cross-metathesis reaction” (Bioorg Med Chem Lett, 2008).

The source made the active and inactive calls. The rule behind the calls is not given here.

A short description of data set [1]: Cytotoxicity against mouse RAW2647 cells after 24 hrs by MTT assay. The format is cell-based, RAW264.7. Particulars: for Activity: raw264.7, 24 h; for GI50 at 24 h: RAW2647 cells. (Tetrazolium assays rely on reduction of a dye to a coloured formazan, in cell work by metabolically active cells.)
The next data set deals with HT-29. The data set can be described thus: Cytotoxicity against human HT29 cells after 24 hrs by MTT assay. The format is functional.
For the next data set, the system named is A549. The data set can be described thus: Cytotoxicity against human A549 cells after 24 hrs by MTT assay. Type of data set: functional, cell-based.
In the next data set the test system is T47D. Description: Cytotoxicity against human T47D cells. The format is functional.
The subject of the next data set is SNB-19. The data set can be described thus: Cytotoxicity against human SNB19 cells. The format is functional.
The subject of the next data set is SNB-75. The data set can be described thus: Cytotoxicity against human SNB75 cells. The format is functional.
The next data set has as its system CCRF-CEM. Description: Cytotoxicity against human CCRF-CEM cells. Type of data set: functional.
Another data set concerns OVCAR-5. Description: Cytotoxicity against human OVCAR5 cells. Type of data set: functional.
In a further data set the test system is DU-145. Description: Cytotoxicity against human DU145 cells. The format is functional.
Another data set deals with HL-60. The data set can be described thus: Cytotoxicity against human HL60 cells. Type of data set: functional.
In the next data set the test system is COLO 205. The data set can be described thus: Cytotoxicity against human COLO205 cells. The format is functional.
For the next data set, the system named is RXF 393. Description: Cytotoxicity against human RXF393 cells. The format is functional.

A word on the GI50: it is the concentration giving 50% growth inhibition. Low values mean greater sensitivity of the cells, high ones lower sensitivity of the cells. Take `COc1cc(/C=C/[C@H]2O[C@@H]3OC(C)(C)O[C@@H]3[C@H]2O)cc(OC)c1`: the Activity entry in [1] was “Not Active”. In addition, the GI50 in the data set with HT-29 is 20 10^-4 M. The outcome in the data set on A549 was inactive.
Turning to `COc1cccc(/C=C/[C@H]2OC(OC)[C@@H]3OC(C)(C)O[C@H]23)c1` (stereo not given in full), the Activity result in data set [1] is listed as “Not Active”. The result in the data set with HT-29 and with A549 was inactive.
In turn, `COc1cc(/C=C/[C@H]2OC(OC)[C@@H]3OC(C)(C)O[C@H]23)cc(OC)c1` (stereo not given in full) came in with a 50% growth inhibitory concentration (GI50) at 24 h in [1] of 541 µM. In addition, the outcome in the data set on HT-29 and with A549 was inactive.
With `COc1cc(/C=C/[C@H]2OC(OC)[C@@H]3OC(C)(C)O[C@H]23)cc2c1OCO2` (stereo not given in full), the GI50 at 24 h in data set [1] worked out at 462 µM. Besides, the concentration for 50% growth inhibition (GI50) with HT-29 is 14 10^-4 M. Besides, in the data set with A549, the outcome was inactive.
Molecule `COc1cccc(/C=C/[C@H]2O[C@@H]3OC(C)(C)O[C@@H]3[C@H]2O)c1` yielded a GI50 at 24 h in data set [1] of 671 µM. In addition, in the data set with HT-29, the GI50 is 17.5 10^-4 M. In addition, the result in the data set on A549 was inactive.
Take `COc1cc(/C=C/[C@H]2OC(OC)[C@@H]3OC(C)(C)O[C@H]23)ccc1O` (stereo not given in full): in data set [1], the GI50 at 24 h came to 835 µM. Further, in the data set with HT-29, the GI50 was 13.2 10^-4 M. Further, the outcome with A549 was inactive.
Regarding `COc1cccc(/C=C/C2OC(C)C(O)C2O)c1CO` (racemic) [(+/-)-VARITRIOL], the GI50 with T47D amounted to 0.21 µM; in the data set with SNB-19, 91.3 µM; with SNB-75, 0.244 µM; in the data set on CCRF-CEM, 26 µM; with OVCAR-5 it was 68.2 µM; in the data set with DU-145, 1.1 µM. The GI50 was 25.2 µM in the data set with HL-60, 95.9 µM in the data set with COLO 205 and 0.163 µM with RXF 393.
In data set [1], `COc1ccc(/C=C/[C@H]2OC(OC)[C@@H]3OC(C)(C)O[C@H]23)cc1` (stereo not given in full) registered a GI50 at 24 h of 696 µM. The GI50 in the data set with HT-29 was 4.7 10^-4 M. Moreover, the result in the data set on A549 was inactive.
